The results in this text go back to US20230293488A1, “COMPOSITIONS AND METHODS OF USE OF ANTIBACTERIAL DRUG COMBINATIONS” (priority 2015, published 2023).

Common to all, as to format: cell-based, Staphylococcus aureus
The test system of experiment [1] is MRSA N315. Put plainly: MIC assay and FICI synergy determination (checkerboard). As to conditions: Staphylococcus aureus, MRSA; single compounds; read-out: MIC in MRSA N315. Here is the method: Microbiological Studies: MRSA N315 was a gift from Dr. Steven Gill, University of Rochester, Rochester, NY, USA. S. aureus ATCC 29213 was acquired from the American Type Culture Collection. De-identified clinical MRSA isolates were selected at random from the clinical isolate strain bank at Barnes-Jewish Hospital, St. Louis, MO, USA. Minimal inhibitory concentration (MIC) assays for inhibition of growth were performed following the recommendations of the Clinical and Laboratory Standards Institute (CLSI)^43. Briefly, 23 antibacterial compounds (Supplemental Table 1) were selected based on coverage of all major drug classes, including three compounds not classified as antibiotics for human use, but with known antibacterial properties. Compounds were dissolved in dimethyl sulfoxide (DMSO) to a stock concentration of 50 mg/ml. Exceptions: Sulfometuron at 20 mg/ml in DMSO; Tobramycin, D-cycloserine, and colistin at 50 mg/ml in H2O and filtered at 2 μm. The 23 compounds were formulated into all 253 possible unique pairwise combinations at fixed ratios and at 100× concentrations in solvent. To increase the range of concentrations assayed for possible synergistic or antagonistic drug interactions (>2,000-fold), the drug stocks were arrayed into threefold dilution series down eight rows in 96-well Costar master drug plates, using a BioMek FX robotic liquid handler (Beckman Coulter, Inc.). Drugs were then mixed 1:100 into 96-well plates containing 200 μl/well of cation-adjusted Mueller-Hinton broth (CAMHB). All drug susceptibility assay wells were inoculated with ˜1 μl of mid-log phase bacterial culture at 0.5 McFarland standard (˜2×10^8 CFU/ml) and grown at 37° C. for 24 h. Endpoint growth at 37° C. after 24 h was determined by optical density at 600 nm ≥0.1 using a Synergy H1 reader (BioTek, Inc.).
Synergy of antibiotic combinations was determined using the fractional inhibitory concentration index (FICI) method ^57,58. By this method, the MIC of the antibiotic compound in combination is divided by the MIC of the compound alone, yielding the fractional contribution of each drug component in the combination. Quotients for all in a combination are summed and drug interactions scored using the formula: FICI=(MIC Acomb A B C)/MICagent A+(MIC Bcomb A B C)/MICagent B+(MIC Ccomb A B C)/MICagentC Select pairwise combinations against MRSA were then combined with each of the 21 remaining single drugs to make triple combinations, formulated and tested in identical fashion to the double combinations. Synergy of combinations was confirmed via triplicate measurements of drug conditions at the MIC. Based on its high synergy against MRSA N315 in the sparse screening, ME/PI/TZ and its constituents were selected for further characterization. Final susceptibility testing of ME/PI/TZ and its components was performed using twofold dilution from 128 to 2 μg/ml for each component

The test system of experiment [2] is MRSA N315. Put plainly: Adaptation and cross-resistance assays (11-day passage). The procedure: Adaptation and Cross-resistance Assays: 414 MRSA N315 was grown in 150 μl/well of CAMHB with constant shaking at 37° C. and passaged over 11 days in identical 96-well plates containing replicate threefold dilutions of ME/PI/TZ, ME/PI, ME/TZ, PI/TZ, ME, PI, and TZ. Top concentrations of drug combinations were 33.3 μg/ml for each component, while top concentrations for single drugs was 100 μg/ml. To test for cell viability, at the end of the assay on day 11, all wells from the plate were pinned with a sterile 96-pin replicator and transferred to CAMHB only. After passage, plates were filled 1:1 with 30% CAMHB/glycerol and frozen at −80° C. for later analysis.
Growth rate of isolates over passages in each condition was determined by linear best-fit of logarithm-converted exponential growth phase. […] Adapted isolates were retrospectively chosen from each combination or single compound in wells showing an increase in MIC or growth rate, frozen isolates were streaked out on agar plates to obtain single colonies, re-grown in broth conditions identical to those in which they grew originally, and then re-inoculated in sterile 96-well plates identical to the original 11-day 431 plates.

In experiment [3] the test system is MRSA COL pbp2a/mecA antisense (AS) strain. The experiment is described as follows: Xylose-inducible antisense-RNA strain susceptibility (PBP2a repression). Conditions: targeted repression of PBP2a. From the text: (§1) We confirmed the targets of the constituents of ME/PI/TZ by reducing the expression of PBP1, PBP2, PBP2a or PBP3 using a xylose-inducible antisense-RNA strategy in the MRSA COL strain background^49. When expression levels of PBP2a were attenuated, the strain behaved as a methicillin-susceptible S. aureus and was sensitized to all tested β-lactams (FIG. 6A-C).

The subject of experiment [4] is MRSA COL pbpA antisense (AS) strain. The experiment is described as follows: Xylose-inducible antisense-RNA strain susceptibility (PBP1 repression). Conditions: targeted repression of PBP1.
Description: as §1

Experiment [5] has as its system MRSA COL pbp2 antisense (AS) strain. Put plainly: Xylose-inducible antisense-RNA strain susceptibility (PBP2 repression). Conditions: targeted repression of PBP2.
Description: as §1

“Also recorded” adds a separate entry of the source.

For `C[C@@H](O)[C@H]1C(=O)N2C(C(=O)O)=C(S[C@@H]3CN[C@H](C(=O)N(C)C)C3)[C@H](C)[C@H]12` [Meropenem], the minimum inhibitory concentration (MIC) in experiment [1] amounted to 16 µg/mL. Besides, the results for the “collateral effect on susceptibility” value in experiment [2] (MRSA N315 after prior exposure to PI/TZ) and in experiment [2] (MRSA N315 after prior exposure/adaptation to piperacillin) were “sensitized” and “sensitizes; also recorded: strong reciprocal collateral sensitivity”, respectively. Moreover, the “susceptibility under xylose induction” value in experiment [3] is on record as “increased susceptibility”; in experiment [4] it was “increased susceptibility; also recorded: larger zones of inhibition”; in experiment [5] it was “increased susceptibility; also recorded: increased effectiveness”.
On to `CCN1CCN(C(=O)N[C@@H](C(=O)N[C@@H]2C(=O)N3[C@@H]2SC(C)(C)[C@@H]3C(=O)O)c2ccccc2)C(=O)C1=O` [Piperacillin], for which the MIC in experiment [1] is 64 µg/mL. Moreover, the “collateral effect on susceptibility” value is recorded as “strong reciprocal collateral sensitivity” in experiment [2] (MRSA N315 after prior exposure to ME/TZ), “Collateral sensitivity” in experiment [2] (MRSA N315 after prior exposure to tazobactam) and “strong reciprocal collateral sensitivity” in experiment [2] (MRSA N315 after prior exposure/adaptation to meropenem). Further, the “susceptibility under xylose induction” value is “Increased susceptibility” in experiment [3], “increased susceptibility” in experiment [4] and “increased susceptibility; also recorded: increased effectiveness” in experiment [5].

Broadly, the MIC is the least concentration at which growth counts as inhibited.
